SMILES strings stand for the structures.

The target in experiment [1] is T1, Estrogen-related receptor gamma (Homo sapiens, UniProt P62508).
T1 sequence (P62508 whole entry): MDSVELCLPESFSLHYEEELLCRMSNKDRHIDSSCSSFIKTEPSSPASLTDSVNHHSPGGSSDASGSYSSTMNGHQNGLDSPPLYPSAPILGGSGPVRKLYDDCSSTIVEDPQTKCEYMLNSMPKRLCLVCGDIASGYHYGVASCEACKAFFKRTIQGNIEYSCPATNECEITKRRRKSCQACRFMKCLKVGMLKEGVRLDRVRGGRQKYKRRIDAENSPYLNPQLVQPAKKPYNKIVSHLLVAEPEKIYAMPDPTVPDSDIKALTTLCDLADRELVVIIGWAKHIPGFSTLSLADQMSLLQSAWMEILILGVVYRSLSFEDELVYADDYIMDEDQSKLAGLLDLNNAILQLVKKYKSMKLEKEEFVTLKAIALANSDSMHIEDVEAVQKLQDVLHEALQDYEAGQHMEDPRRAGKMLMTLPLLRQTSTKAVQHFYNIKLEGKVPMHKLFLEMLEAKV
Description: Binding affinity to human ERR gamma.

Experiment [2] has as its target T2, Nuclear receptor ROR-gamma (Homo sapiens, UniProt P51449).
T2 sequence (P51449 whole entry): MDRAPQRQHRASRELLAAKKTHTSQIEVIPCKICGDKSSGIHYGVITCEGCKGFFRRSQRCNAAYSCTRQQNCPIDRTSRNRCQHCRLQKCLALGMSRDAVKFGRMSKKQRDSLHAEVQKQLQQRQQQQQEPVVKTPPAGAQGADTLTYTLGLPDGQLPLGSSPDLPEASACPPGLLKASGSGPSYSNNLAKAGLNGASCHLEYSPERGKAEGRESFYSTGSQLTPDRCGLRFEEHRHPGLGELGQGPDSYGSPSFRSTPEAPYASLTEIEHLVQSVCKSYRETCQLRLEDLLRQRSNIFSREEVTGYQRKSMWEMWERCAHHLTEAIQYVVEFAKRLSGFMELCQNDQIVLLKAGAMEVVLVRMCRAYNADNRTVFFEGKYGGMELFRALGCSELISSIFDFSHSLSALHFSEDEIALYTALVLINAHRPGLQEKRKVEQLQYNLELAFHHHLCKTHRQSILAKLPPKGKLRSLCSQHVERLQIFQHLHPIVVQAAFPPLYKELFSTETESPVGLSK
Description: Displacement of fluorescein-labeled 25-hydroxycholesterol from human N-terminal 6xHis-tagged ROR gamma LBD (residues 262 to 518) expressed in Escherichia coli BL21-CodonPlus(DE3)-RIL cells by fluorescence polarization assay.

In the case of `CC(C)(c1ccc(O)cc1)c1ccc(O)cc1` [BISPHENOL A], in experiment [1], the dissociation constant (Kd) was 5.5 nM.
In experiment [2], `C[C@H]1O[C@@H](O[C@H]2[C@@H](O)C[C@H](O[C@H]3[C@@H](O)C[C@H](O[C@H]4CC[C@@]5(C)[C@H](CC[C@@H]6[C@@H]5C[C@@H](O)[C@]5(C)[C@@H](C7=CC(=O)OC7)CC[C@]65O)C4)O[C@@H]3C)O[C@@H]2C)C[C@H](O)[C@@H]1O` [DIGOXIN] came in with a concentration for half-maximal inhibition (IC50) of 4000 nM. This lies in the single-digit micromolar range.

(Values after ChEMBL document CHEMBL3217638, “Synthetic modulators of the retinoic acid receptor-related orphan receptors” (Medchemcomm, 2013).)
